The text below walks through data of PubChem BioAssay (NCI).

The structures appear in SMILES notation. Where “and” joins values, the source holds several entries; their conditions need not be identical. Identical values can stand only once.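 Method: 48-hour compound exposure of cells in 96-well plates, five concentrations, linear interpolation of endpoints. GI50 marks 50% less growth. The concentration for full growth arrest is given as TGI.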

What all share (test): NCI-60 cell line screen, 48 h
Assay [1] deals with 786-0 renal.
Assay [2] has as its system CAKI-1 renal.
Assay [3] deals with DU-145 prostate.
The test system of assay [4] is HCT-15 colon.
The test system of assay [5] is HS 578T breast.
The test system of assay [6] is HT29 colon.
Assay [7] relates to NCI-H226 lung.
The test system of assay [8] is RXF 393 renal.
Assay [9] concerns SK-MEL-2 melanoma.
Assay [10] has as its system SK-MEL-28 melanoma.
The test system of assay [11] is SK-MEL-5 melanoma.
In assay [12] the test system is UO-31 renal.
In assay [13] the test system is BT-549 breast.
Assay [14] has as its system HOP-62 NSCLC.
Assay [15] relates to K-562 leukemia.
Assay [16] has as its system UACC-257 melanoma.

`COc1cc2cc(C(=O)N3CC(CCl)c4ccc(O)cc43)[nH]c2c(OC)c1OC` (stereo not drawn): the TGI in assay [1] came out at 0.121 µM; in assay [2], 0.0201 µM; in [3], 0.661 µM; in [4], 0.0412 µM; in assay [5], 0.0588 µM; in [6] it was 0.0107 µM. In addition, the TGI in [7] was 0.0566 µM and 0.471 µM; in [8], 0.000301 µM; in [9], 0.00468 µM; in assay [10] it was 0.00601 µM; in [11], 0.000396 µM; in assay [12] it was 0.0429 µM. Besides, the GI50 in assay [7] is 0.116 µM.

On to `CN(C(=O)Cc1cc(Cl)c(Cl)cc1N=C=S)[C@H]1CCCC[C@@H]1N1CCCC1`, for which the TGI was 25.5 µM in assay [1]; 29.5 µM in assay [13]; 29.2 µM in assay [2]; 27.8 µM in assay [3]; 29.1 µM in assay [4]; 27.9 µM in assay [14]. Besides, the TGI in assay [5] came to 42.4 µM; in [6], 18.7 µM; in assay [15], 5.89 µM; in assay [8], 13.1 µM; in assay [9], 29.2 µM; in assay [10], 7.65 µM. In addition, the TGI in [11] is 27.8 µM; in [16], 28 µM; in assay [12], 29.1 µM.

Turning to `NNC(=O)c1ccc(-n2nnc(C(=O)NN)c2C(=O)NN)cc1`, the TGI in assay [1], in assay [13], in assay [2], in assay [3], in assay [4] and in [14] was above 100 µM each time. Also, the TGI in assay [6], in assay [15], in assay [9], in assay [10], in [11] and in [16] was above 100 µM in each case. This compound came in with a TGI in [12] above 100 µM.

Turning to `COC(=O)[C@@H]1CN(C(=O)CCc2ccccc2)C(=O)N1C(=O)OCc1ccccc1`, the TGI in [1], in [2], in [3], in assay [4], in assay [14] and in assay [5] was above 100 µM throughout. For the same compound, the TGI in assay [6], in assay [15], in [7], in [8], in assay [9] and in assay [10] was above 100 µM throughout. In addition, the TGI in assay [11], in assay [16] and in assay [12] was above 100 µM throughout.

`COc1cc(/C=C2/CCS(=O)(=O)c3ccc(C)cc3C2=O)cc(OC)c1OC`: the TGI is above 35.4 µM in assay [1]; above 26.3 µM in [13]; above 40.8 µM in assay [2]; above 27.6 µM in [3]; above 39 µM in assay [4]; 23.1 µM in [14]. Besides, the TGI in assay [5] was above 35.9 µM; in [6] it was above 33.8 µM; in assay [15] it was 4.06 µM; in [7] it was 45.9 µM; in assay [9], 99.2 µM; in assay [10] it was above 37.4 µM. Besides, the TGI was above 38.3 µM in assay [11], above 42.7 µM in [16] and 23.4 µM in assay [12].

For the compound `O=C(CN1CCNCCN(CC(=O)N2CCCCC2)CCNCC1)N1CCCCC1`, the TGI in [1], in [13], in assay [2], in [3], in assay [4] and in assay [14] was above 100 µM each time. Besides, the TGI in assay [5], in [6], in [15], in assay [7], in assay [9] and in [10] was above 100 µM throughout. Also, the TGI in assay [11], in [16] and in assay [12] was above 100 µM each time.

With `COc1cc(OC)c(OC)cc1/C=N/N=C(\N)NO`, the TGI in [1], in [2], in [3], in [4], in assay [14] and in [5] was above 100 µM each time. For the same compound, the TGI in assay [6], in assay [15], in assay [7], in assay [8], in assay [9] and in [10] was above 100 µM each time. In addition, the TGI in [11], in assay [16] and in [12] was above 100 µM throughout.

Take `C/C(=N\Nc1nc2ccccc2s1)c1ncccn1`: the TGI in assay [1] was 15.8 µM; in [13], 3.42 µM; in assay [2], 5.62 µM; in assay [3] it was above 100 µM; in assay [4], 2.45 µM; in [14] it was 5.78 µM. The TGI in assay [5] was above 37.2 µM; in assay [15], above 100 µM; in assay [8], 4.68 µM; in assay [9] it was 4.46 µM; in [10] it was above 100 µM; in assay [11] it was 0.219 µM. The TGI in [12] stood at 0.395 µM.

In the case of `COc1ccc(NS(=O)CCCc2ccccc2)cc1` (stereo not drawn), the TGI in assay [1], in [13], in assay [3], in [4], in assay [14] and in [5] was above 100 µM throughout. Moreover, the TGI in assay [6], in assay [15], in assay [7], in assay [9], in assay [10] and in assay [11] was above 100 µM each time. The TGI in [16] and in assay [12] was above 100 µM in each case.

Turning to `Cc1ccc(/C=N/Nc2cnccn2)s1`, the TGI in assay [1], in assay [13], in assay [2], in assay [4], in assay [14] and in assay [5] was above 100 µM each time. Besides, the TGI in assay [6], in assay [15], in assay [7], in assay [8], in [9] and in assay [10] was above 100 µM each time. For the same compound, the TGI in assay [11], in [16] and in assay [12] was above 100 µM in each case.
